From EP0394928A1, “Topical antiviral pharmaceutical composition containing a nonionic surfactant” (SYNTEX (U.S.A.) INC., priority 1989, dated 1990)
Marks after values point to notes of the source that are not given here. Values belong to the compound of their own block, whether it stands above or below them.

Tests used:
[1] = Partition coefficient (octanol / water); assay type: physicochemical; settings: for logP: ratio of concentrations in nonpolar medium, e.g. octanol, and aqueous medium, e.g. water
Text: The modes of action reported for each compound are likewise distinct. Azone has been reported as a penetration enhancer, i.e., when it is co-administered with another agent, Azone will facilitate the movement of the agent into the cell by increasing lipid fluidity (Lambert, et al., (1989), Pharm Res., 6(9):798-803). The enhancement effect has been reported to be more pronounced with lipophilic agents and with agents with higher partition coefficients. A partition coefficient is the ratio of the concentrations of a given compound in a nonpolar medium, e.g., octanol and in an aqueous medium, e.g., water (ACV and DHPG have partition coefficients of less than 0.1, whereas Ada-DHPG has a partition coefficient of about 2.8 x10⁵).

[2] = system: HSV-1 (F strain); assay: Guinea pig model of cutaneous HSV-1 infection, acyclovir creams (Example 9); assay type: in vivo, female Hartley guinea pigs; settings: 5% ACV in 5% Nonoxynol-9 cream; once a day for 3 days starting 24 hours post-infection; Day 4; treated vs nontreated side
Text: In vivo testing for antiviral activity against cutaneous HSV-1 infections is also done using a guinea pig model, for example, by the procedures described by Hubler, W.R., Jr., Troy, D.F., Troll, D., and Jarratt, M., "Guinea Pig Model For Cutaneous Herpes Simplex Virus Infection", J. Invest. Dermatol., 62:92-95 (1974). This procedure is a modification of a procedure initially described by Hubler, W.R., Jr., et al., "Guinea Pig Model Eor Cutaneous Herpes Simplex Virus Infection", J. Invest. Dermatol., 62:92-95 (1974). The backs of female Hartley guinea pigs were shaved, depilated and inoculated with HSV-1 (F strain) in four different areas by multiple shallow punctures. Two quadrants were on the left side and two on the right side of the dorsum. The animals were divided into 3 treatment groups of 6 animals each. The treatment groups were topically administered a cream on one side of the back once a day for 3 days starting 24 hours post-infection, the other side of back was not treated. The creams contained as an active ingredient either 5% acyclovir in a polyethylene glycol (PEG) based cream (Zovirax ®), 5% acyclovir in a 5% Nonoxynol-9 (N-9) cream or 5% Nonoxynol-9 cream only (placebo control). The numbers of lesions which developed on either the treated or untreated side of the back were counted on Day 4 after infection. […]

[3] = system: HSV-1 (F strain); assay: Guinea pig model of cutaneous HSV-1 infection, dose response tests in Azone / Nonoxynol-9 creams (Example 8); assay type: in vivo, female Hartley guinea pigs; settings: once a day 3 days from 24 hours post-infection, Day 4
Text: (§1) In vivo testing for antiviral activity against cutaneous HSV-1 infections is also done using a guinea pig model, for example, by the procedures described by Hubler, W.R., Jr., Troy, D.F., Troll, D., and Jarratt, M., "Guinea Pig Model For Cutaneous Herpes Simplex Virus Infection", J. Invest. Dermatol., 62:92-95 (1974).
(§2) This procedure is a modification of a procedure initially described by Hubler, W.R., Jr., et al., "Guinea Pig Model For Cutaneous Herpes Simplex Virus Infection", J. Invest. Dermatol., 62:92-95 (1974).
The backs of female Hartley guinea pigs were shaved, depilated and inoculated with HSV-1 (F strain) in four different areas by multiple shallow punctures. Two quadrants were on the left side and two on the right side of the dorsum. The guinea pigs were divided into treatment groups of usually 6 each. Treatment was topically administered once a day for 3 days starting 24 hours post-infection on one side of the back. The other side of the back was not treated. Different treatment groups were administered creams which contained 9-[1,3-di(1-adamantyl-carboxy)-2-propoxymethyl]guanine (Ada-DHPG), (10%, 5%, 2.5%, 1% or 0%) with 5% propylene glycol (PG), or 5% propylene glycol (PG); and either Nonoxynol-9 (5% and 2.5%) or Azone (10% and 5%). Additionally, other groups were administered creams containing Ada-DHPG (10%, 5%, 2.5%, 1% or 0%) with no propylene glycol and either 10% Azone or 5% Nonoxynol-9. Seven dose response tests were run in all. In each test the numbers of lesions were counted on Day 4 after infection. The treated side versus the nontreated side for the various groups were compared by a percent reduction in number of lesions which developed.

[4] = system: HSV-1 (F strain); assay: Guinea pig model of cutaneous HSV-1 infection, DHPG versus Ada-DHPG in PG, Azone or Nonoxynol-9 creams (Example 10); assay type: in vivo, female Hartley guinea pigs; settings: 0.5 ml/animal once a day for 3 days, lesions counted Day 4
Text: as §1, §2
The backs of female Hartley guinea pigs were shaved, depilated and inoculated with HSV-1 (F strain) in four different areas by multiple shallow punctures. Two quadrants were on the left side and two on the right side of the dorsum. The animals were divided into groups and topically administered a cream on one side of the back (0.5 ml/animal) once a day for 3 days starting […] post infection. The other side of the back was not treated. The cream contained either a formulation of 9-(1,3-dihydroxy-2-propoxymethyl)guanine (DHPG) with Azone, Nonoxynol-9 (N-9), or propylene glycol (PG); or 9-[1,3-di(1-adamantylcarboxy)-2-propoxymethyl]guanine (Ada-DHPG) with Azone, Nonoxynol-9 (N-9), or propylene glycol (PG). Placebo groups were treated with only Azone, Nonoxynol-9 (N-9) or propylene glycol (PG). Both DHPG and Ada-DHPG were run in each test with a single formulation. A total of 4 tests were run. In each study, the number of lesions which developed were counted on Day 4 after infection. The treated side versus nontreated side for the various groups were compared by a percent reduction in the number of lesions which developed.

- partition coefficient ([1]; octanol/water): less than 0.1
SMILES: Nc1nc2c(ncn2COCCO)c(=O)[nH]1 [ACV, 9-(2-hydroxyethoxymethyl)guanine]
- Percent Reduction in numbers of lesions [2]: 69* Percent

- logP [1]: ~5.45
SMILES: Nc1nc2c(ncn2COC(COC(=O)C23CC4CC(CC(C4)C2)C3)COC(=O)C23CC4CC(CC(C4)C2)C3)c(=O)[nH]1 (stereo not shown) [Ada-DHPG, 9-[1,3-di(1-adamantylcarboxy)-2-propoxymethyl]guanine]
- Percent Reduction in number of lesions ([3]; Test 1: 1% Ada-DHPG, 5% PG (no surfactant added) cream): 12%
- Percent Reduction in number of lesions ([3]; Test 1: 2.5% Ada-DHPG, 5% PG (no surfactant added) cream): 16%
- Percent Reduction in number of lesions ([3]; Test 1: 5% Ada-DHPG, 5% PG (no surfactant added) cream): 3%
- Percent Reduction in number of lesions ([3]; Test 1: 10% Ada-DHPG, 5% PG (no surfactant added) cream): 37* Percent
- Percent Reduction in number of lesions ([3]; Test 2: 1% Ada-DHPG, 5% Azone cream (with 5% PG)): -6%
- Percent Reduction in number of lesions ([3]; Test 2: 2.5% Ada-DHPG, 5% Azone cream (with 5% PG)): 14%
- Percent Reduction in number of lesions ([3]; Test 2: 5% Ada-DHPG, 5% Azone cream (with 5% PG)): 14%
- Percent Reduction in number of lesions ([3]; Test 2: 10% Ada-DHPG, 5% Azone cream (with 5% PG)): 29%
- Percent Reduction in number of lesions ([3]; Test 3: 1% Ada-DHPG, 10% Azone cream (with 5% PG)): 43* Percent
- Percent Reduction in number of lesions ([3]; Test 3: 2.5% Ada-DHPG, 10% Azone cream (with 5% PG)): 35* Percent
- Percent Reduction in number of lesions ([3]; Test 3: 5% Ada-DHPG, 10% Azone cream (with 5% PG)): 73* Percent
- Percent Reduction in number of lesions ([3]; Test 3: 10% Ada-DHPG, 10% Azone cream (with 5% PG)): 78* Percent
- Percent Reduction in number of lesions ([3]; Test 4: 1% Ada-DHPG, 10% Azone (no PG) cream): 27%
- Percent Reduction in number of lesions ([3]; Test 4: 2.5% Ada-DHPG, 10% Azone (no PG) cream): 18%
- Percent Reduction in number of lesions ([3]; Test 4: 5% Ada-DHPG, 10% Azone (no PG) cream): 27%
- Percent Reduction in number of lesions ([3]; Test 4: 10% Ada-DHPG, 10% Azone (no PG) cream): 47* Percent
- Percent Reduction in number of lesions ([3]; Test 5: 1% Ada-DHPG, 2.5% Nonoxynol-9 cream (with 5% PG)): 33%
- Percent Reduction in number of lesions ([3]; Test 5: 2.5% Ada-DHPG, 2.5% Nonoxynol-9 cream (with 5% PG)): 52* Percent
- Percent Reduction in number of lesions ([3]; Test 5: 5% Ada-DHPG, 2.5% Nonoxynol-9 cream (with 5% PG)): 52* Percent
- Percent Reduction in number of lesions ([3]; Test 5: 10% Ada-DHPG, 2.5% Nonoxynol-9 cream (with 5% PG)): 64* Percent
- Percent Reduction in number of lesions ([3]; Test 6: 1% Ada-DHPG, 5% Nonoxynol-9 cream (with 5% PG)): 59* Percent
- Percent Reduction in number of lesions ([3]; Test 6: 2.5% Ada-DHPG, 5% Nonoxynol-9 cream (with 5% PG)): 65* Percent
- Percent Reduction in number of lesions ([3]; Test 6: 5% Ada-DHPG, 5% Nonoxynol-9 cream (with 5% PG)): 92* Percent
- Percent Reduction in number of lesions ([3]; Test 6: 10% Ada-DHPG, 5% Nonoxynol-9 cream (with 5% PG)): 88* Percent
- Percent Reduction in number of lesions ([3]; Test 7: 1% Ada-DHPG, 5% Nonoxynol-9 (no PG) cream): 57* Percent
- Percent Reduction in number of lesions ([3]; Test 7: 2.5% Ada-DHPG, 5% Nonoxynol-9 (no PG) cream): 68* Percent
- Percent Reduction in number of lesions ([3]; Test 7: 5% Ada-DHPG, 5% Nonoxynol-9 (no PG) cream): 90* Percent
- Percent Reduction in number of lesions ([3]; Test 7: 10% Ada-DHPG, 5% Nonoxynol-9 (no PG) cream): 82* Percent
- Percent Reduction in the number of lesions ([4]; Test 1: 10% Ada-DHPG in 25% PG cream): 51* Percent
- Percent Reduction in the number of lesions ([4]; Test 2: 10% Ada-DHPG in 5% PG cream): 42* Percent
- Percent Reduction in the number of lesions ([4]; Test 3: 10% Ada-DHPG in 10% Azone cream): 76* Percent
- Percent Reduction in the number of lesions ([4]; Test 4: 10% Ada-DHPG in 5% Nonoxynol-9 cream): 77* Percent

- logP [1]: < -1
SMILES: Nc1nc2c(ncn2COC(CO)CO)c(=O)[nH]1 [DHPG, 9-(1,3-dihydroxy-2-propoxymethyl)guanine, reference compound]
- Percent Reduction in the number of lesions ([4]; Test 1: 4.4% DHPG in 25% PG cream): 75* Percent
- Percent Reduction in the number of lesions ([4]; Test 2: 4.4% DHPG in 5% PG cream): 68* Percent
- Percent Reduction in the number of lesions ([4]; Test 3: 4.4% DHPG in 10% Azone cream): 100* Percent
- Percent Reduction in the number of lesions ([4]; Test 4: 4.4% DHPG in 5% Nonoxynol-9 cream): 94* Percent
